We go through 17 molecules from patent publication US20230093099A1, “COMPOUNDS AND METHODS OF TREATING CANCERS” (CULLGEN (SHANGHAI), INC., priority 2019, published 2023).

pIC50: −log10 of the molar value. Some results are limits rather than exact numbers.

In this experiment the test system is RS4;11 cells. Description: Cell viability assay (CellTiter-Glo) in RS4;11 cells. The settings on record: Homo sapiens, 72 h; RS4;11 cells; cell viability, 3 days, CellTiter-Glo; read-out: IC50. Type of experiment: cell-based. An outline of the steps: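 RS4;11 cells seeded at 5000 per well, exposed for 3 days to 8- or 12-point 3-fold serial dilutions. Viability read by CellTiter-Glo luminescence; IC50 fitted by nonlinear least-squares regression.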
As to `Cc1ncsc1-c1ccc(CNC(=O)[C@@H]2C[C@@H](O)CN2C(=O)[C@@H](NC(=O)CCCC(=O)N2CCN(c3ccc(Nc4nc5cccc(-c6ccc(S(C)(=O)=O)cc6)n5n4)cc3)CC2)C(C)(C)C)cc1` [JA-066, (2S,4R)-1-((S)-3,3-Dimethyl-2-(5-(4-(4-((5-(4-(methylsulfonyl)phenyl)-[1,2,4]triazolo[1,5-a]pyridin-2-yl)amino)phenyl)piperazin-1-yl)-5-oxopentanamido)butanoyl)-4-hydroxy-N-(4-(4-methylthiazol-5-yl)benzyl)pyrrolidine-2-carboxamide], the pIC50 (usually −log10 of the IC50, conventionally taken in molar units) was less than 5.00.

For the molecule `Cc1ncsc1-c1ccc(CNC(=O)[C@@H]2C[C@@H](O)CN2C(=O)[C@@H](NC(=O)CCCCCCCCC(=O)N2CCN(c3ccc(Nc4nc5cccc(-c6ccc(S(C)(=O)=O)cc6)n5n4)cc3)CC2)C(C)(C)C)cc1` [JA-067, (2S,4R)-1-((S)-3,3-Dimethyl-2-(10-(4-(4-((5-(4-(methylsulfonyl)phenyl)-[1,2,4]triazolo[1,5-a]pyridin-2-yl)amino)phenyl)piperazin-1-yl)-10-oxodecanamido)butanoyl)-4-hydroxy-N-(4-(4-methylthiazol-5-yl)benzyl)pyrrolidine-2-carboxamide], the pIC50 was 5.41.

Take `Cc1ncsc1-c1ccc(CNC(=O)[C@@H]2C[C@@H](O)CN2C(=O)[C@@H](NC(=O)CCOCCOCCOCCC(=O)N2CCN(c3ccc(Nc4nc5cccc(-c6ccc(S(C)(=O)=O)cc6)n5n4)cc3)CC2)C(C)(C)C)cc1` [JA-068, (2S,4R)-1-((S)-2-(tert-Butyl)-16-(4-(4-((5-(4-(methylsulfonyl)phenyl)-[1,2,4]triazolo[1,5-a]pyridin-2-yl)amino)phenyl)piperazin-1-yl)-4,16-dioxo-7,10,13-trioxa-3-azahexadecanoyl)-4-hydroxy-N-(4-(4-methylthiazol-5-yl)benzyl)pyrrolidine-2-carboxamide]: the pIC50 was less than 5.00.

Consider `Cc1ncsc1-c1ccc(CNC(=O)[C@@H]2C[C@@H](O)CN2C(=O)[C@@H](NC(=O)CCC(=O)N2CCN(c3ccc(Nc4nc5cccc(-c6ccc(S(C)(=O)=O)cc6)n5n4)cc3)CC2)C(C)(C)C)cc1` [JA-069, (2S,4R)-1-((S)-3,3-Dimethyl-2-(4-(4-(4-((5-(4-(methylsulfonyl)phenyl)-[1,2,4]triazolo[1,5-a]pyridin-2-yl)amino)phenyl)piperazin-1-yl)-4-oxobutanamido)butanoyl)-4-hydroxy-N-(4-(4-methylthiazol-5-yl)benzyl)pyrrolidine-2-carboxamide], for which the pIC50 is less than 5.00.

Take `Cc1ncsc1-c1ccc(CNC(=O)[C@@H]2C[C@@H](O)CN2C(=O)[C@@H](NC(=O)CCOCCOCCC(=O)N2CCN(c3ccc(Nc4nc5cccc(-c6ccc(S(C)(=O)=O)cc6)n5n4)cc3)CC2)C(C)(C)C)cc1` [JA-070, (2S,4R)-1-((S)-3,3-Dimethyl-2-(3-(2-(3-(4-(4-((5-(4-(methylsulfonyl)phenyl)-[1,2,4]triazolo[1,5-a]pyridin-2-yl)amino)phenyl)piperazin-1-yl)-3-oxopropoxy)ethoxy)propanamido)butanoyl)-4-hydroxy-N-(4-(4-methylthiazol-5-yl)benzyl)pyrrolidine-2-carboxamide]: the pIC50 was 5.56.

As for `Cc1ncsc1-c1ccc(CNC(=O)[C@@H]2C[C@@H](O)CN2C(=O)[C@@H](NC(=O)CCOCCOCCOCCOCCOCCC(=O)N2CCN(c3ccc(Nc4nc5cccc(-c6ccc(S(C)(=O)=O)cc6)n5n4)cc3)CC2)C(C)(C)C)cc1` [JA-071, (2S,4R)-1-((S)-2-(tert-Butyl)-22-(4-(4-((5-(4-(methylsulfonyl)phenyl)-[1,2,4]triazolo[1,5-a]pyridin-2-yl)amino)phenyl)piperazin-1-yl)-4,22-dioxo-7,10,13,16,19-pentaoxa-3-azadocosanoyl)-4-hydroxy-N-(4-(4-methylthiazol-5-yl)benzyl)pyrrolidine-2-carboxamide], the pIC50 is 6.02.

Turning to `Cc1ncsc1-c1ccc(CNC(=O)[C@@H]2C[C@@H](O)CN2C(=O)[C@@H](NC(=O)COCC(=O)N2CCN(c3ccc(Nc4nc5cccc(-c6ccc(S(C)(=O)=O)cc6)n5n4)cc3)CC2)C(C)(C)C)cc1` [JA-072, (2S,4R)-1-((S)-3,3-Dimethyl-2-(2-(2-(4-(4-((5-(4-(methylsulfonyl)phenyl)-[1,2,4]triazolo[1,5-a]pyridin-2-yl)amino)phenyl)piperazin-1-yl)-2-oxoethoxy)acetamido)butanoyl)-4-hydroxy-N-(4-(4-methylthiazol-5-yl)benzyl)pyrrolidine-2-carboxamide], the pIC50 was 5.19.

In the case of `Cc1ncsc1-c1ccc(CNC(=O)[C@@H]2C[C@@H](O)CN2C(=O)[C@@H](NC(=O)COCCOCC(=O)N2CCN(c3ccc(Nc4nc5cccc(-c6ccc(S(C)(=O)=O)cc6)n5n4)cc3)CC2)C(C)(C)C)cc1` [JA-073, (2S,4R)-1-((S)-3,3-Dimethyl-2-(2-(2-(2-(4-(4-((5-(4-(methylsulfonyl)phenyl)-[1,2,4]triazolo[1,5-a]pyridin-2-yl)amino)phenyl)piperazin-1-yl)-2-oxoethoxy)ethoxy)acetamido)butanoyl)-4-hydroxy-N-(4-(4-methylthiazol-5-yl)benzyl)pyrrolidine-2-carboxamide], the pIC50 is 5.34.

On to `Cc1ncsc1-c1ccc(CNC(=O)[C@@H]2C[C@@H](O)CN2C(=O)[C@@H](NC(=O)CCCCC(=O)N2CCN(c3ccc(Nc4nc5cccc(-c6ccc(S(C)(=O)=O)cc6)n5n4)cc3)CC2)C(C)(C)C)cc1` [JA-074, (2S,4R)-1-((S)-3,3-Dimethyl-2-(6-(4-(4-((5-(4-(methylsulfonyl)phenyl)-[1,2,4]triazolo[1,5-a]pyridin-2-yl)amino)phenyl)piperazin-1-yl)-6-oxohexanamido)butanoyl)-4-hydroxy-N-(4-(4-methylthiazol-5-yl)benzyl)pyrrolidine-2-carboxamide], for which the pIC50 is less than 5.00.

As to `CS(=O)(=O)c1ccc(-c2cccc3nc(Nc4ccc(N5CCN(C(=O)CCOCCOCCNc6cccc7c6C(=O)N(C6CCC(=O)NC6=O)C7=O)CC5)cc4)nn23)cc1` (centres unmarked) [JA-075, 2-(2,6-Dioxopiperidin-3-yl)-4-((2-(2-(3-(4-(4-((5-(4-(methylsulfonyl)phenyl)-[1,2,4]triazolo[1,5-a]pyridin-2-yl)amino)phenyl)piperazin-1-yl)-3-oxopropoxy)ethoxy)ethyl)amino)isoindoline-1,3-dione], the pIC50 is 5.61.

Take `Cc1ncsc1-c1ccc(CNC(=O)[C@@H]2C[C@@H](O)CN2C(=O)[C@@H](NC(=O)CCCCCC(=O)N2CCN(c3ccc(Nc4nc5cccc(-c6ccc(S(C)(=O)=O)cc6)n5n4)cc3)CC2)C(C)(C)C)cc1` [JA-076, (2S,4R)-1-((S)-3,3-Dimethyl-2-(7-(4-(4-((5-(4-(methylsulfonyl)phenyl)-[1,2,4]triazolo[1,5-a]pyridin-2-yl)amino)phenyl)piperazin-1-yl)-7-oxoheptanamido)butanoyl)-4-hydroxy-N-(4-(4-methylthiazol-5-yl)benzyl)pyrrolidine-2-carboxamide]: the negative-log IC50 (pIC50) was less than 5.00.

For `CS(=O)(=O)c1ccc(-c2cccc3nc(Nc4ccc(N5CCN(C(=O)CCOCCOCCOCCOCCOCCNc6cccc7c6C(=O)N(C6CCC(=O)NC6=O)C7=O)CC5)cc4)nn23)cc1` (centres unmarked) [JA-077, 2-(2,6-Dioxo-piperidin-3-yl)-4-(2-{2-[2-(2-{2-[3-(4-{4-[5-(4-methanesulfonyl-phenyl)-[1,2,4]triazolo[1,5-a]pyridin-2-ylamino]-phenyl}-piperazin-1-yl)-3-oxo-propoxy]-ethoxy}-ethoxy)-ethoxy]-ethoxy}-ethylamino)-isoindole-1,3-dione], the pIC50 was 6.39.

For the molecule `CS(=O)(=O)c1ccc(-c2cccc3nc(Nc4ccc(N5CCN(C(=O)CCCCCCNc6cccc7c6C(=O)N(C6CCC(=O)NC6=O)C7=O)CC5)cc4)nn23)cc1` (centres unmarked) [JA-078, 2-(2,6-Dioxo-piperidin-3-yl)-4-[7-(4-{4-[5-(4-methanesulfonyl-phenyl)-[1,2,4]triazolo[1,5-a]pyridin-2-ylamino]-phenyl}-piperazin-1-yl)-7-oxo-heptylamino]-isoindole-1,3-dione], the pIC50 was less than 5.00.

As for `CS(=O)(=O)c1ccc(-c2cccc3nc(Nc4ccc(N5CCN(C(=O)CCOCCNc6cccc7c6C(=O)N(C6CCC(=O)NC6=O)C7=O)CC5)cc4)nn23)cc1` (centres unmarked) [JA-079, 2-(2,6-Dioxo-piperidin-3-yl)-4-{2-[3-(4-{4-[5-(4-methanesulfonyl-phenyl)-[1,2,4]triazolo[1,5-a]pyridin-2-ylamino]-phenyl}-piperazin-1-yl)-3-oxo-propoxy]-ethylamino}-isoindole-1,3-dione], the pIC50 is 6.32.

With `CS(=O)(=O)c1ccc(-c2cccc3nc(Nc4ccc(N5CCN(C(=O)CCOCCOCCOCCOCCNc6cccc7c6C(=O)N(C6CCC(=O)NC6=O)C7=O)CC5)cc4)nn23)cc1` (centres unmarked) [JA-080, 2-(2,6-Dioxo-piperidin-3-yl)-4-{2-[2-(2-{2-[3-(4-{4-[5-(4-methanesulfonyl-phenyl)-[1,2,4]triazolo[1,5-a]pyridin-2-ylamino]-phenyl}-piperazin-1-yl)-3-oxo-propoxy]-ethoxy}-ethoxy)-ethoxy]-ethylamino}-isoindole-1,3-dione], the pIC50 is 6.24.

Consider `Cc1ncsc1-c1ccc(CNC(=O)[C@@H]2C[C@@H](O)CN2C(=O)[C@@H](NC(=O)CCCCCCCCCC(=O)N2CCN(c3ccc(Nc4nc5cccc(-c6ccc(S(C)(=O)=O)cc6)n5n4)cc3)CC2)C(C)(C)C)cc1` [JA-081, 4-Hydroxy-1-{2-[11-(4-{4-[5-(4-methanesulfonyl-phenyl)-[1,2,4]triazolo[1,5-a]pyridin-2-ylamino]-phenyl}-piperazin-1-yl)-11-oxo-undecanoylamino]-3,3-dimethyl-butyryl}-pyrrolidine-2-carboxylic acid 4-(4-methyl-thiazol-5-yl)-benzylamide], for which the pIC50 is less than 5.00.

For the molecule `Cc1ncsc1-c1ccc(CNC(=O)[C@@H]2C[C@@H](O)CN2C(=O)[C@@H](NC(=O)CCOCCC(=O)N2CCN(c3ccc(Nc4nc5cccc(-c6ccc(S(C)(=O)=O)cc6)n5n4)cc3)CC2)C(C)(C)C)cc1` [JA-082, 4-Hydroxy-1-(2-{3-[3-(4-{4-[5-(4-methanesulfonyl-phenyl)-[1,2,4]triazolo[1,5-a]pyridin-2-ylamino]-phenyl}-piperazin-1-yl)-3-oxo-propoxy]-propionylamino}-3,3-dimethyl-butyryl)-pyrrolidine-2-carboxylic acid 4-(4-methyl-thiazol-5-yl)-benzylamide], the negative logarithm of the IC50 (pIC50) is 5.19.
